Assay results published in US8133685B2, “AMPK modulation as a method of regulating stem cell and cancer stem cell proliferation, self-renewal and differentiation” (Washington University, priority 2008, dated 2012).

How the values were obtained:
[1] = test system: Neural Stem and Progenitor cells (NPCs); assay: NPC proliferation: count of trypan blue negative (live) cells after 48 hours of growth; format: cell-based, mouse; settings: E12.5 forebrain wildtype NPCs, vs DMSO, p<0.001
Description: FIG. 26. […] Embryonic day 12.5 forebrain wildtype NPCs were cultured for 4 days and seeded as single cells in presence of DMSO (control), or the AMPK inhibitors Compound C (10 μM) and Adenine 9-β-D-arabinofuranoside (Ara A 1 mM). Following 48 hours of growth in medium supplemented with EGF ([…]) and bFGF ([…]), neurospheres were trypsinized and trypan blue negative (live) cells were counted on a hemocytometer. * p<0.001
Neurospheres were dissected from E12.5 CNS telencephalic lobes and cultured in neurobasal medium supplemented with B27 and N2, as described previously (Dasgupta, B. and Gutmann, D. H., J. Neurosci. 25, 5584-5594, 2005). […] At each time point, resulting neurospheres were trypsinized and counted on a hemocytometer. For self-renewal assays, single neurospheres were picked up by pipette and neurosphere diameter was measured individually under microscope. Ten similar-sized neurospheres of each genotype were triturated individually before plating, and the number of resulting secondary neurospheres generated per primary neurosphere was counted after 6 days. Neurosphere diameters were measured using Metamorph software. […] Briefly, NPCs were pulse labeled with […] CFSE at 37° C. for 15 min, washed, and one-half of the cells were analyzed by FACS, while the other half was analyzed after 4 days of growth. […]

[2] = test system: AMPK holoenzyme; assay: Nonradioactive in vitro kinase assay: immunoprecipitated AMPK holoenzyme phosphorylating recombinant Rb fusion protein (residues 701-928); format: biochemical, mouse; settings: AMPK immunoprecipitated from WT NPCs, phospho-Rb800/804 immunoblot
Description: Nonradioactive in vitro kinase assay was performed as previously described (Lee et al., Nature 447, 1017-1020, 2007), with minor modifications. Briefly, WT NPCs were lysed with MAPK buffer, and AMPK was immunoprecipitated from WT NPCs with AMPKα1/2 antibody, washed with a buffer containing 10 mM Tris-Hcl (pH 7.5) and 0.5 M LiCl, and suspended in kinase buffer containing 0.5 mM ATP. CyclinD1/D2 (associated with CDK4/6) was immunoprecipitated with cyclinD1 and cyclinD2 antibodies. Reactions were carried out at 30° C. for 1 hr by adding RB-C fusion protein (residues 701-928; Cell Signaling Technology, Beverly, Mass.) to the reaction mix. Reaction was terminated by adding 6× Laemmli buffer and boiling for 5 min. Samples were resolved in 10% SDS-PAGE, and Western blot analysis was performed with phospho-RbSer^800/804 (Ser^807/811 in human) antibody (Cell Signaling Technology).
The CDK-cyclin D complex is known to phosphorylate Rb at Ser804. […] CDK4/6, which exist in complexes with cyclinD1/D2, were immunoprecipitated using cyclin D1/2 antibodies, and the activity was measured by nonradioactive in vitro kinase assays using bacterially produced Rb fusion protein (residues 701-928) as the substrate. […] In these experiments, phosphorylation was monitored by immunoblot using phosphor-Rb800/804 antibody. […]

[3] = test system: AMPK; assay: Immunoblot of pAMPK and pRb in WT NPCs after growth factor (EGF and FGF) withdrawal and re-administration; format: cell-based, mouse; settings: growth factors withdrawn 2 h, re-administered 1 h in presence of compound C (CC; 5 mM per FIG. 54 legend)
Source text: FIG. 54. This figure illustrates that energy restriction and growth factor signaling utilize the AMPK-Rb axis to enhance NPC proliferation. […] (B and C) Proliferation assay of WT NPCs (B) and β1−/−NPCs (C) cultured for 48 hr under glucose-limiting conditions (Cont=25 Mm glucose, which is the amount in neurobasal medium). Data are representative of three independent experiments (#p=0.07; *p % 0.005). Error bars indicate SD. (D and E) Densitometric analysis using phospho-specific AMPKα^Thr172, Rb^Ser800/804, ACC^Ser79, and pan AMPKα, Rb, and ACC antibodies. AU, arbitrary units.
Cultured NPCs or MEFs were lysed with MAPK lysis buffer (20 mM Tris-HCL, pH 7.5, 150 mM, NaCl, 1 mM EGTA, 1 mM EDTA, 1% TritonX-100, 2.5 mM sodium pyrophosphate, 1 mM β-glycerophosphate, 1 mM sodium vanadate, 1 mM PMSF, 1 mM DTT and protease inhibitor cocktail). AMPK was immunoprecipitated with AMPKα1/2 antibody (Cell Signaling Technology), Rb was immunoprecipitated with Rb antibody (Santa Cruz Biotechnology, Santa Cruz, Calif.) and cyclinD1/D2 (associated with CDK4/6) was immunoprecipitated with CyclinD1 and CyclinD2 antibodies (Cell Signaling Technology). […] The immunoprecipitated proteins were analyzed by standard immunoblot analysis. […]

[4] = test system: WT NPCs; assay: Proliferation assay of WT NPCs cultured 48 hr under glucose-limiting conditions; format: cell-based, mouse; settings: 2.5-25 mM glucose
Description: FIG. 54. This figure illustrates that energy restriction and growth factor signaling utilize the AMPK-Rb axis to enhance NPC proliferation. (A) Densitometric analysis of WT NPCs using indicated antibodies after 2-hr growth factor stimulation in the presence or absence of AMPK inhibitor compound C (CC; […]). (B and C) Proliferation assay of WT NPCs (B) and β1−/−NPCs (C) cultured for 48 hr under glucose-limiting conditions (Cont=25 Mm glucose, which is the amount in neurobasal medium). Data are representative of three independent experiments (#p=0.07; *p % 0.005). Error bars indicate SD. […]
Neurospheres were dissected from E12.5 CNS telencephalic lobes and cultured in neurobasal medium supplemented with B27 and N2, as described previously (Dasgupta, B. and Gutmann, D. H., J. Neurosci. 25, 5584-5594, 2005). […] At each time point, resulting neurospheres were trypsinized and counted on a hemocytometer. For self-renewal assays, single neurospheres were picked up by pipette and neurosphere diameter was measured individually under microscope. Ten similar-sized neurospheres of each genotype were triturated individually before plating, and the number of resulting secondary neurospheres generated per primary neurosphere was counted after 6 days. Neurosphere diameters were measured using Metamorph software. […]

[5] = test system: Rb-E2F1; assay: Immunoprecipitation with Rb antibody and Western blot with E2F1 antibody from NPCs; format: cell-based, mouse; set-up: dose or concentration left out as unconfirmed; settings: NPCs grown in indicated glucose concentration
Description: FIG. 56. This figure illustrates that energy restriction and growth factor signaling utilize the AMPK-Rb axis to enhance NPC proliferation. (A) Immunoprecipitation assay using Rb antibody and Western blot with E2F1 antibody from NPCs grown in the indicated glucose concentration in the absence or presence of CC ([…]). (B) Immunohistochemistry of saggital sections of E14.5 wildtype and β1−/− body using pHistoneH3 antibody (red).
Cultured NPCs or MEFs were lysed with MAPK lysis buffer (20 mM Tris-HCL, pH 7.5, 150 mM, NaCl, 1 mM EGTA, 1 mM EDTA, 1% TritonX-100, 2.5 mM sodium pyrophosphate, 1 mM β-glycerophosphate, 1 mM sodium vanadate, 1 mM PMSF, 1 mM DTT and protease inhibitor cocktail). […] The immunoprecipitated proteins were analyzed by standard immunoblot analysis. […]
AMPK is integrally involved in regulating cellular energy homeostasis and is activated by low cellular ATP levels, such as occurs by limiting oxygen or glucose supplies or exercise, conditions that enhance proliferative capacity of stem cells (Burgers et al., Exp. Brain Res. 188, 33-43, 2008; Fu et al., Diabetologia 49, 1027-1038, 2006; Stolzing et al., Rejuvenation Res. 9, 31-35, 2006). To explore whether the proliferative effects of glucose restriction are manifested through activation of the AMPK-Rb axis, we monitored the growth of WT NPCs cultured in 2.5-25 mM (the amount present in neurobasal medium) glucose for 48 hr. […]

Row | AMPK phosphorylation of Rb at Ser804 [2] | SMILES | proliferation of NPCs (live cell count) ([1]; 1 mM) | increase in phosphoAMPK (pAMPK Thr172) on EGF and FGF re-administration [3] | increase in phosphoRb (Ser800/804) on EGF and FGF re-administration [3] | proliferation of NPCs (live cell count) ([1]; 10 μM) | NPC growth stimulation by low glucose [4] | neurosphere growth [4] | Rb sequestration of E2F1 (Rb-bound E2F1) [5]
1 | – | Nc1ncnc2c1ncn2[C@@H]1O[C@H](CO)[C@@H](O)[C@@H]1O [Ara A, Adenine 9-β-D-arabinofuranoside] | drastically reduces proliferation | – | – | – | – | – | –
2 | could be inhibited | c1cc(-c2cnn3cc(-c4ccc(OCCN5CCCCC5)cc4)cnc23)ccn1 [Compound C, 6-[4-(2-piperidin-1-ylethoxy)-phenyl]-3-pyridin-4-ylpyrazolo[1,5-α]pyrimidine] | – | no increase | no increase | drastically reduces proliferation | not observed | severely inhibited | higher levels
